Test results taken from PubChem BioAssay AID1963967 (Molecular Pharmacology Branch, DTP, NCI, 2024).

Tested on: 855422-203-R-J1-PDC spheroids with HUVEC/MSC, viability
Assay: Anticancer human tumor 855422-203-R-J1-PDC patient-derived bladder carcinoma cell line growth inhibition [PI3K]
Conditions: for IC50: curve of first compound; for viability, T/C: stronger effect = lower value
How it was run: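 Complex 3D spheroids (cancer cells + endothelial HUVEC + mesenchymal stem cells); drug pairs of targeted agent x inavolisib/alpelisib/duvelisib/copanlisib; half-log series from ~Cmax, max 10 microM if Cmax unknown; endpoint viability.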

[1] = second compound 0.0316 µM, first compound 0.0316 µM
[2] = second compound 0.0316 µM, first compound 0.1 µM
[3] = second compound 0.1 µM, first compound 0.0316 µM
[4] = second compound 0.1 µM, first compound 0.1 µM
[5] = second compound 0.316 µM, first compound 0.0316 µM
[6] = second compound 0.316 µM, first compound 0.1 µM
[7] = second compound 1 µM, first compound 0.0316 µM
[8] = second compound 1 µM, first compound 0.1 µM
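Also: agents incubated with spheroids for one week before read-out.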
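For viability, T/C in this document: 100% = DMSO vehicle-treated control wells.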

In the case of CC(C)n1nc(-c2ccc3oc(N)nc3c2)c2c(N)ncnc21 + COc1c(OCCCN2CCOCC2)ccc2c3n(c(=NC(=O)c4cnc(N)nc4)nc12)CCN3, the IC50 (second compound 0.00316 µM) is reported as 0.047 µM, the IC50 (second compound 0.01 µM) is reported as 0.0313 µM and the IC50 (second compound 0.0316 µM) is reported as 0.0106 µM. For the same molecule, the IC50 (second compound 0.1 µM) was under 0.000316 µM, the IC50 (second compound 0.316 µM) was under 0.000316 µM and the IC50 (second compound 1 µM) was under 0.000316 µM. The viability, T/C (second compound 0.00316 µM, first compound 0.000316 µM) was 106%, the viability, T/C (second compound 0.00316 µM, first compound 0.001 µM) was 88.3% and the viability, T/C (second compound 0.00316 µM, first compound 0.00316 µM) was 94.4%. For the same molecule, the viability, T/C (second compound 0.00316 µM, first compound 0.01 µM) was 81.5%, the viability, T/C (second compound 0.00316 µM, first compound 0.0316 µM) was 72.6% and the viability, T/C (second compound 0.00316 µM, first compound 0.1 µM) was 14.6%. The viability, T/C (second compound 0.01 µM, first compound 0.000316 µM) was 89.6%, the viability, T/C (second compound 0.01 µM, first compound 0.001 µM) was 87.7% and the viability, T/C (second compound 0.01 µM, first compound 0.00316 µM) was 90.3%. The viability, T/C (second compound 0.01 µM, first compound 0.01 µM) was 86.5%, the viability, T/C (second compound 0.01 µM, first compound 0.0316 µM) was 49.7% and the viability, T/C (second compound 0.01 µM, first compound 0.1 µM) was 10.4%. It also gave a viability, T/C (second compound 0.0316 µM, first compound 0.000316 µM) of 72.1%, a viability, T/C (second compound 0.0316 µM, first compound 0.001 µM) of 68.8% and a viability, T/C (second compound 0.0316 µM, first compound 0.00316 µM) of 56.8%. The viability, T/C (second compound 0.0316 µM, first compound 0.01 µM) was 53%, the viability, T/C [1] was 34.5% and the viability, T/C [2] was 7.16%. It also gave a viability, T/C (second compound 0.1 µM, first compound 0.000316 µM) of 33.4%, a viability, T/C (second compound 0.1 µM, first compound 0.001 µM) of 30.8% and a viability, T/C (second compound 0.1 µM, first compound 0.00316 µM) of 33.1%. It also gave a viability, T/C (second compound 0.1 µM, first compound 0.01 µM) of 29.3%, a viability, T/C [3] of 19.1% and a viability, T/C [4] of 4.35%. The viability, T/C (second compound 0.316 µM, first compound 0.000316 µM) was 11.2%, the viability, T/C (second compound 0.316 µM, first compound 0.001 µM) was 10.2% and the viability, T/C (second compound 0.316 µM, first compound 0.00316 µM) was 9.76%. It also gave a viability, T/C (second compound 0.316 µM, first compound 0.01 µM) of 9.27%, a viability, T/C [5] of 5.64% and a viability, T/C [6] of 2.5%. The viability, T/C (second compound 1 µM, first compound 0.000316 µM) was 5.23%, the viability, T/C (second compound 1 µM, first compound 0.001 µM) was 5.41% and the viability, T/C (second compound 1 µM, first compound 0.00316 µM) was 4.21%. It also gave a viability, T/C (second compound 1 µM, first compound 0.01 µM) of 4.46%, a viability, T/C [7] of 3.47% and a viability, T/C [8] of 1.3%.

Cn1nccc1Nc1nccc(-c2ccn(C(CO)c3ccc(Cl)c(F)c3)c(=O)c2)n1 (centres undefined) + CC(Nc1ncnc2nc[nH]c12)c1cc2cccc(Cl)c2c(=O)n1-c1ccccc1 was tested, and the IC50 (second compound 0.0316 µM) was 8.7 µM, the IC50 (second compound 0.1 µM) was 9.94 µM and the IC50 (second compound 0.316 µM) was 8.44 µM. For the same molecule, the IC50 (second compound 1 µM) was 9 µM, the IC50 (second compound 3.16 µM) was 7.46 µM and the IC50 (second compound 10 µM) was 4.01 µM. It also gave a viability, T/C [1] of 113%, a viability, T/C [2] of 94.6% and a viability, T/C (second compound 0.0316 µM, first compound 0.316 µM) of 116%. It also gave a viability, T/C (second compound 0.0316 µM, first compound 1 µM) of 98.2%, a viability, T/C (second compound 0.0316 µM, first compound 3.16 µM) of 91% and a viability, T/C (second compound 0.0316 µM, first compound 10 µM) of 44.3%. It also gave a viability, T/C [3] of 107%, a viability, T/C [4] of 98.9% and a viability, T/C (second compound 0.1 µM, first compound 0.316 µM) of 109%. It also gave a viability, T/C (second compound 0.1 µM, first compound 1 µM) of 101%, a viability, T/C (second compound 0.1 µM, first compound 3.16 µM) of 92.7% and a viability, T/C (second compound 0.1 µM, first compound 10 µM) of 49.5%. It also gave a viability, T/C [5] of 111%, a viability, T/C [6] of 98.7% and a viability, T/C (second compound 0.316 µM, first compound 0.316 µM) of 105%. It also gave a viability, T/C (second compound 0.316 µM, first compound 1 µM) of 106%, a viability, T/C (second compound 0.316 µM, first compound 3.16 µM) of 90% and a viability, T/C (second compound 0.316 µM, first compound 10 µM) of 43.5%. For the same molecule, the viability, T/C [7] was 107%, the viability, T/C [8] was 112% and the viability, T/C (second compound 1 µM, first compound 0.316 µM) was 107%. It also gave a viability, T/C (second compound 1 µM, first compound 1 µM) of 103%, a viability, T/C (second compound 1 µM, first compound 3.16 µM) of 88.1% and a viability, T/C (second compound 1 µM, first compound 10 µM) of 45.7%. The viability, T/C (second compound 3.16 µM, first compound 0.0316 µM) was 100%, the viability, T/C (second compound 3.16 µM, first compound 0.1 µM) was 107% and the viability, T/C (second compound 3.16 µM, first compound 0.316 µM) was 107%. The viability, T/C (second compound 3.16 µM, first compound 1 µM) was 103%, the viability, T/C (second compound 3.16 µM, first compound 3.16 µM) was 84.4% and the viability, T/C (second compound 3.16 µM, first compound 10 µM) was 38.2%. The viability, T/C (second compound 10 µM, first compound 0.0316 µM) was 88.5%, the viability, T/C (second compound 10 µM, first compound 0.1 µM) was 81.3% and the viability, T/C (second compound 10 µM, first compound 0.316 µM) was 87.4%. For the same molecule, the viability, T/C (second compound 10 µM, first compound 1 µM) was 80%, the viability, T/C (second compound 10 µM, first compound 3.16 µM) was 56.5% and the viability, T/C (second compound 10 µM, first compound 10 µM) was 25.1%.
